Assay results from ChEMBL document CHEMBL4393743, “Anti-tumor activity evaluation of novel tubulin and HDAC dual-targeting inhibitors” (Bioorg Med Chem Lett, 2019).

Key:
[1] = tested on: A549; experiment: Induction of cell cycle arrest in human A549 cells assessed as accumulation at G0/G1 phase at 3 uM incubated for 36 hrs by propidium iodide staining based flow cytometry (reference value: 72.51%); format: functional
[2] = tested on: A549; experiment: Induction of apoptosis in human A549 cells assessed as early apoptotic cells at 0.1 uM incubated for 72 hrs by Annexin V-FITC/propidium iodide-staining based flow cytometric analysis (reference value: 1.8%); format: functional
[3] = tested on: A549; experiment: Induction of cell cycle arrest in human A549 cells assessed as accumulation at G2/M phase at 0.3 uM incubated for 36 hrs by propidium iodide staining based flow cytometry (reference value: 10.83%); format: functional
[4] = tested on: MDA-MB-231; experiment: Antiproliferative activity against human MDA-MB-231 cells assessed as cell growth inhibition incubated for 72 hrs by MTT assay; format: functional, cell-based; conditions: MDA-MB-231, 72 h
[5] = tested on: A549; experiment: Induction of apoptosis in human A549 cells assessed as late apoptotic cells at 0.1 uM incubated for 72 hrs by Annexin V-FITC/propidium iodide-staining based flow cytometric analysis (reference value: 5.69%); format: functional
[6] = tested on: A549; experiment: Induction of apoptosis in human A549 cells assessed as live cells at 0.3 uM incubated for 72 hrs by Annexin V-FITC/propidium iodide-staining based flow cytometric analysis (reference value: 89.8%); format: functional
[7] = tested on: A549; experiment: Induction of apoptosis in human A549 cells assessed as early apoptotic cells at 1 uM incubated for 72 hrs by Annexin V-FITC/propidium iodide-staining based flow cytometric analysis (reference value: 1.8%); format: functional
[8] = tested on: LoVo; experiment: Antiproliferative activity against human LoVo cells assessed as cell growth inhibition incubated for 72 hrs by MTT assay; format: functional, cell-based
[9] = target: Histone deacetylase 1 (Homo sapiens, UniProt Q13547); experiment: Inhibition of HDAC1 (unknown origin) using Boc-Lys(Ac)-AMC as substrate incubated for 60 mins by fluorescence assay
[10] = tested on: A549; experiment: Induction of apoptosis in human A549 cells assessed as late apoptotic cells at 0.3 uM incubated for 72 hrs by Annexin V-FITC/propidium iodide-staining based flow cytometric analysis (reference value: 5.69%); format: functional
[11] = tested on: A549; experiment: Induction of cell cycle arrest in human A549 cells assessed as accumulation at G2/M phase at 1 uM incubated for 36 hrs by propidium iodide staining based flow cytometry (reference value: 10.83%); format: functional
[12] = tested on: A549; experiment: Induction of apoptosis in human A549 cells assessed as late apoptotic cells at 10 uM incubated for 72 hrs by Annexin V-FITC/propidium iodide-staining based flow cytometric analysis (reference value: 5.69%); format: functional
[13] = tested on: A549; experiment: Induction of apoptosis in human A549 cells assessed as necrotic cells at 1 uM incubated for 72 hrs by Annexin V-FITC/propidium iodide-staining based flow cytometric analysis (reference value: 2.76%); format: functional
[14] = target: Tubulin; experiment: Inhibition of tubulin polymerization (unknown origin) by spectrophotometric method; format: protein-complex assay, Homo sapiens
[15] = target: T1, Histone deacetylase 8 (Homo sapiens, UniProt Q9BY41); experiment: Inhibition of HDAC8 (unknown origin) using Boc-Lys(Ac)-AMC as substrate incubated for 60 mins by fluorescence assay
T1 sequence (Q9BY41 whole entry): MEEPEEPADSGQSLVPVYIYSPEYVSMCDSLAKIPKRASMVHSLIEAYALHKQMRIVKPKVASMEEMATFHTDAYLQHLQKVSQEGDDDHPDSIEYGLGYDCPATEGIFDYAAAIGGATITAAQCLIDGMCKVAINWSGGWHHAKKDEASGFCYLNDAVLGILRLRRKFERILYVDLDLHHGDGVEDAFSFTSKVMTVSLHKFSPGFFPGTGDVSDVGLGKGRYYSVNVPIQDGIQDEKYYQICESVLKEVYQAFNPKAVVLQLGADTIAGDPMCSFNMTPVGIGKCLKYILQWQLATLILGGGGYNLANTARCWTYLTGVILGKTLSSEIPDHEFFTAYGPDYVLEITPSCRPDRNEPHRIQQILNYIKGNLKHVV

[16] = tested on: BGC-823; experiment: Antiproliferative activity against human BGC823 cells assessed as cell growth inhibition incubated for 72 hrs by MTT assay; format: functional, cell-based; conditions: BGC-823, 72 h
[17] = tested on: MCF7; experiment: Antiproliferative activity against human MCF7 cells assessed as cell growth inhibition incubated for 72 hrs by MTT assay; format: functional, cell-based; conditions: MCF7, 72 h
[18] = target: T2, Protein deacetylase HDAC6 (Homo sapiens, UniProt Q9UBN7); experiment: Inhibition of HDAC6 (unknown origin) using Boc-Lys(Ac)-AMC as substrate incubated for 60 mins by fluorescence assay
T2 sequence (Q9UBN7 whole entry): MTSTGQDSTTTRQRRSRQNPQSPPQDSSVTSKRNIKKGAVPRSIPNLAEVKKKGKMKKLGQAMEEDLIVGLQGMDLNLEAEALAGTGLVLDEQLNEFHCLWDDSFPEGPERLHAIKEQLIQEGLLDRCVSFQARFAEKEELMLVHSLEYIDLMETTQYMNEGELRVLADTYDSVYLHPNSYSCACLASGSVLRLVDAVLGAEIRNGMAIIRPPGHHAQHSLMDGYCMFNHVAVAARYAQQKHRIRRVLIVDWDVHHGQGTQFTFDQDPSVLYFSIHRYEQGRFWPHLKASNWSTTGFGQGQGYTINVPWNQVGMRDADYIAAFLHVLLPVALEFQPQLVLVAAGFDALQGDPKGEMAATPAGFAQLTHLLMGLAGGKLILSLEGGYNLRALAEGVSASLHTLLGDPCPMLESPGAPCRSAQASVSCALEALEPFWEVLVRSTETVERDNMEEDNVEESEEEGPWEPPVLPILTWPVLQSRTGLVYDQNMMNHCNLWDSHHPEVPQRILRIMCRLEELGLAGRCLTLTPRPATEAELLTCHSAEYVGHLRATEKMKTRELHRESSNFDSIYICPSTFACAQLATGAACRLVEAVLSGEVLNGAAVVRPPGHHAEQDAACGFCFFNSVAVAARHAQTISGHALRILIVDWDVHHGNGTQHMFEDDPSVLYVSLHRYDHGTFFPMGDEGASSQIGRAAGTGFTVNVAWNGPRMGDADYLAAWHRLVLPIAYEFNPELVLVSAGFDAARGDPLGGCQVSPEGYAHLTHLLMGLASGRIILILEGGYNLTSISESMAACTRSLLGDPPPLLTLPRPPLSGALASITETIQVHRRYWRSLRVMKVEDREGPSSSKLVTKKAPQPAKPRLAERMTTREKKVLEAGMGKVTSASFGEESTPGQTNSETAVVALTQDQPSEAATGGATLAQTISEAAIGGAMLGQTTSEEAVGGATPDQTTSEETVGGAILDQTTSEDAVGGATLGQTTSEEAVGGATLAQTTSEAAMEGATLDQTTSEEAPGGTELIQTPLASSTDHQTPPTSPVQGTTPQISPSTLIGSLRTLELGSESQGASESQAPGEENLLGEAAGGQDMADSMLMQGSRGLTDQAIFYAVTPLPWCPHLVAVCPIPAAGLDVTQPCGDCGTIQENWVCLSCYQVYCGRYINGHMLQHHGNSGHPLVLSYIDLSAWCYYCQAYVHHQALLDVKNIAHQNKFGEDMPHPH

[19] = tested on: A549; experiment: Induction of apoptosis in human A549 cells assessed as necrotic cells at 0.1 uM incubated for 72 hrs by Annexin V-FITC/propidium iodide-staining based flow cytometric analysis (reference value: 2.76%); format: functional

Chain of Histone deacetylase 1 (Q13547 whole entry): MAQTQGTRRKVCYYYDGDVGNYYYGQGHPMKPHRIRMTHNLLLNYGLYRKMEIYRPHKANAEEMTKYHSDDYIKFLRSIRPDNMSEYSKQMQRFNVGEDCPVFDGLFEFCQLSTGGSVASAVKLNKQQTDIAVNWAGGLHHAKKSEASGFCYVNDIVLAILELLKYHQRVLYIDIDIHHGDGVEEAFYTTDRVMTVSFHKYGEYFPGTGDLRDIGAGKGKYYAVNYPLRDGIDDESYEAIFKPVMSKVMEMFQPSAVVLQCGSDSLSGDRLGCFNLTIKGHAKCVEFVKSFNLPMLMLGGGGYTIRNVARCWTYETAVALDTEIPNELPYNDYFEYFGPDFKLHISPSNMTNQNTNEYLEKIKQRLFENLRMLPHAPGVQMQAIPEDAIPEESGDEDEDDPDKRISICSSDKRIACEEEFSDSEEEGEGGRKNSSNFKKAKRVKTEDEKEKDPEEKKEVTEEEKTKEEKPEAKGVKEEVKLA

- IC50 [4]: 6.95 µM
- IC50 [8]: 4.88 µM
- IC50 [9]: 0.996 µM
- IC50 [14]: 54.5 µM
- IC50 [15]: 1.7 µM
- IC50 [16]: 2.4 µM
- IC50 [17]: 7.33 µM
- IC50 [18]: 0.47 µM
Structure (SMILES): COc1ccc(/C=C(\C)C(=O)c2cc(OC)c(OC)c(OC)c2)cc1OCCCC(=O)NO
- Activity [1]: 9.13%
- Activity [2]: 4.25%
- Activity [3]: 13.81%
- Activity [5]: 9.41%
- Activity [6]: 79.9%
- Activity [7]: 6.6%
- Activity [10]: 10.1%
- Activity [11]: 62.89%
- Activity [12]: 28.5%
- Activity [13]: 8.05%
- Activity [19]: 1.51%
